Assay results from ChEMBL document CHEMBL1201862, “PubChem BioAssay data set” (2004).
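The compound was tested at five concentrations on cells cultured in 96-well plates, with a 48-hour exposure period. At the GI50, growth is halved.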 Active and inactive are the calls of the source. Cut-off read from the data, not from the text of the source: active = GI50 up to about 1.1 µM and inactive = higher.

Tests used:
Test in all cases: NCI anticancer screen, dose series, 48 h
786-0 = system: 786-0
A549 = system: A549
ACHN = system: ACHN
CAKI-1 = system: CAKI-1
CCRF-CEM = system: CCRF-CEM
COLO 205 = system: COLO 205
DLD-1 = system: DLD-1
DMS-114 = system: DMS-114
EKVX = system: EKVX
HCC 2998 = system: HCC 2998
HCT-116 = system: HCT-116
HCT-15 = system: HCT-15
HL-60 = system: HL-60
HOP-18 = system: HOP-18
HOP-62 = system: HOP-62
HOP-92 = system: HOP-92
HT-29 = system: HT-29
IGROV-1 = system: IGROV-1
K562 = system: K562
KM12 = system: KM12
LOX IMVI = system: LOX IMVI
LXFL 529 = system: LXFL 529
M14 = system: M14
M19-MEL = system: M19-MEL
MOLT-4 = system: MOLT-4
Malme-3M = system: Malme-3M
NCI-H226 = system: NCI-H226
NCI-H23 = system: NCI-H23
NCI-H460 = system: NCI-H460
NCI-H522 = system: NCI-H522
OVCAR-3 = system: OVCAR-3
OVCAR-4 = system: OVCAR-4
OVCAR-5 = system: OVCAR-5
OVCAR-8 = system: OVCAR-8
RPMI-8226 = system: RPMI-8226
RXF 393 = system: RXF 393
SF-268 = system: SF-268
SF-295 = system: SF-295
SF-539 = system: SF-539
SK-MEL-28 = system: SK-MEL-28
SK-MEL-2 = system: SK-MEL-2
SK-MEL-5 = system: SK-MEL-5
SK-OV-3 = system: SK-OV-3
SN12C = system: SN12C
SNB-19 = system: SNB-19
SNB-78 = system: SNB-78
SR = system: SR
SW-620 = system: SW-620
TK-10 = system: TK-10
U-251 = system: U-251
UACC-257 = system: UACC-257
UACC-62 = system: UACC-62
UO-31 = system: UO-31
A498 = system: A498
DMS-273 = system: DMS-273
KM-20L2 = system: KM-20L2
SNB-75 = system: SNB-75

CCOC(=O)C(=O)Nc1ccc(C)cc1C
GI50 (786-0): > 100 µM (inactive)
GI50 (A549): > 100 µM (inactive)
GI50 (ACHN): > 100 µM (inactive)
GI50 (CAKI-1): > 100 µM (inactive)
GI50 (CCRF-CEM): > 100 µM (inactive)
GI50 (COLO 205): > 100 µM (inactive)
GI50 (DLD-1): > 100 µM (inactive)
GI50 (DMS-114): > 100 µM (inactive)
GI50 (EKVX): > 100 µM (inactive)
GI50 (HCC 2998): > 100 µM (inactive)
GI50 (HCT-116): > 100 µM (inactive)
GI50 (HCT-15): > 100 µM
GI50 (HL-60): > 100 µM (inactive)
GI50 (HOP-18): > 100 µM (inactive)
GI50 (HOP-62): > 100 µM (inactive)
GI50 (HOP-92): > 100 µM (inactive)
GI50 (HT-29): > 100 µM (inactive)
GI50 (IGROV-1): > 100 µM (inactive)
GI50 (K562): > 100 µM (inactive)
GI50 (KM12): > 100 µM (inactive)
GI50 (LOX IMVI): > 100 µM (inactive)
GI50 (LXFL 529): > 100 µM (inactive)
GI50 (M14): > 100 µM (inactive)
GI50 (M19-MEL): > 100 µM (inactive)
GI50 (MOLT-4): > 100 µM (inactive)
GI50 (Malme-3M): > 100 µM (inactive)
GI50 (NCI-H226): > 100 µM (inactive)
GI50 (NCI-H23): > 100 µM (inactive)
GI50 (NCI-H460): > 100 µM (inactive)
GI50 (NCI-H522): > 100 µM (inactive)
GI50 (OVCAR-3): > 100 µM (inactive)
GI50 (OVCAR-4): > 100 µM (inactive)
GI50 (OVCAR-5): > 100 µM (inactive)
GI50 (OVCAR-8): > 100 µM (inactive)
GI50 (RPMI-8226): > 100 µM (inactive)
GI50 (RXF 393): > 100 µM (inactive)
GI50 (SF-268): > 100 µM (inactive)
GI50 (SF-295): > 100 µM (inactive)
GI50 (SF-539): > 100 µM (inactive)
GI50 (SK-MEL-28): > 100 µM (inactive)
GI50 (SK-MEL-2): > 100 µM (inactive)
GI50 (SK-MEL-5): > 100 µM (inactive)
GI50 (SK-OV-3): > 100 µM (inactive)
GI50 (SN12C): > 100 µM (inactive)
GI50 (SNB-19): > 100 µM (inactive)
GI50 (SNB-78): > 100 µM (inactive)
GI50 (SR): > 100 µM (inactive)
GI50 (SW-620): > 100 µM (inactive)
GI50 (TK-10): > 100 µM (inactive)
GI50 (U-251): > 100 µM (inactive)
GI50 (UACC-257): > 100 µM (inactive)
GI50 (UACC-62): > 100 µM (inactive)
GI50 (UO-31): > 100 µM (inactive)

CN(C)CCC(/C=C/c1ccccc1)=N\Nc1ccccc1
GI50 (786-0): 2.03 µM (inactive)
GI50 (A498): 12.5 µM (inactive)
GI50 (A549): 1.73 µM (inactive)
GI50 (ACHN): 0.37 µM (active)
GI50 (CCRF-CEM): 0.526 µM (active)
GI50 (COLO 205): 1.96 µM (inactive)
GI50 (DLD-1): 0.596 µM (active)
GI50 (DMS-114): 2.07 µM (inactive)
GI50 (DMS-273): 0.571 µM (active)
GI50 (EKVX): 2.07 µM (inactive)
GI50 (HCT-116): 1.9 µM (inactive)
GI50 (HCT-15): 0.336 µM
GI50 (HL-60): 0.564 µM (active)
GI50 (HOP-18): 4.5 µM (inactive)
GI50 (HOP-62): 2.59 µM (inactive)
GI50 (HT-29): 2.97 µM (inactive)
GI50 (IGROV-1): 2.82 µM (inactive)
GI50 (K562): 0.325 µM (active)
GI50 (KM-20L2): 0.241 µM (active)
GI50 (KM12): 0.847 µM (active)
GI50 (LOX IMVI): 0.0493 µM (active)
GI50 (LXFL 529): 0.185 µM (active)
GI50 (M14): 2.72 µM (inactive)
GI50 (M19-MEL): 1.57 µM (inactive)
GI50 (MOLT-4): 0.667 µM (active)
GI50 (Malme-3M): 3.07 µM (inactive)
GI50 (NCI-H23): 3.97 µM (inactive)
GI50 (NCI-H460): 1.41 µM (inactive)
GI50 (NCI-H522): 1.84 µM (inactive)
GI50 (OVCAR-3): 2.33 µM (inactive)
GI50 (OVCAR-4): 4.32 µM (inactive)
GI50 (OVCAR-5): 1.98 µM (inactive)
GI50 (OVCAR-8): 10.7 µM (inactive)
GI50 (RPMI-8226): 0.853 µM (active)
GI50 (RXF 393): 5.83 µM (inactive)
GI50 (SF-268): 0.736 µM (active)
GI50 (SF-295): 0.451 µM (active)
GI50 (SF-539): 1.82 µM (inactive)
GI50 (SK-MEL-28): 1.8 µM (inactive)
GI50 (SK-MEL-5): 3.48 µM (inactive)
GI50 (SK-OV-3): 3.56 µM (inactive)
GI50 (SN12C): 2.74 µM (inactive)
GI50 (SNB-19): 3.88 µM (inactive)
GI50 (SNB-75): 3.48 µM (inactive)
GI50 (SNB-78): 3.63 µM (inactive)
GI50 (SW-620): 0.335 µM (active)
GI50 (TK-10): 1.6 µM (inactive)
GI50 (U-251): 1.83 µM (inactive)
GI50 (UACC-257): 2.42 µM (inactive)
GI50 (UACC-62): 0.617 µM (active)
GI50 (UO-31): 1.4 µM (inactive)

CC12O[Te]34OC1(C)C(C)(O3)C2(C)O4
GI50 (786-0): 15.3 µM (inactive)
GI50 (A498): > 8.75 µM (inactive)
GI50 (A549): 12.3 µM (inactive)
GI50 (ACHN): 14.8 µM (inactive)
GI50 (CAKI-1): 9.71 µM (inactive)
GI50 (COLO 205): 16.9 µM (inactive)
GI50 (DLD-1): 15.3 µM (inactive)
GI50 (DMS-114): 13.6 µM (inactive)
GI50 (DMS-273): 16.4 µM (inactive)
GI50 (EKVX): 20.1 µM (inactive)
GI50 (HCC 2998): 0.016 µM (active)
GI50 (HCT-116): 11.9 µM (inactive)
GI50 (HCT-15): 17.4 µM
GI50 (HOP-18): 17.5 µM (inactive)
GI50 (HOP-62): 20.4 µM (inactive)
GI50 (HT-29): 13.2 µM (inactive)
GI50 (IGROV-1): 11.9 µM (inactive)
GI50 (KM-20L2): 32.4 µM (inactive)
GI50 (KM12): 14.8 µM (inactive)
GI50 (LOX IMVI): 3.56 µM (inactive)
GI50 (LXFL 529): 14.6 µM (inactive)
GI50 (M14): 16.5 µM (inactive)
GI50 (M19-MEL): 13.5 µM (inactive)
GI50 (MOLT-4): 6.47 µM (inactive)
GI50 (Malme-3M): 18.1 µM (inactive)
GI50 (NCI-H226): 16.9 µM (inactive)
GI50 (NCI-H23): 16.4 µM (inactive)
GI50 (NCI-H460): 15.3 µM (inactive)
GI50 (NCI-H522): 11.8 µM (inactive)
GI50 (OVCAR-3): 17.9 µM (inactive)
GI50 (OVCAR-4): 14.6 µM (inactive)
GI50 (OVCAR-5): 12.2 µM (inactive)
GI50 (OVCAR-8): 12.5 µM (inactive)
GI50 (RXF 393): 14.8 µM (inactive)
GI50 (SF-268): 11.8 µM (inactive)
GI50 (SF-295): 3.86 µM (inactive)
GI50 (SF-539): 15.9 µM (inactive)
GI50 (SK-MEL-28): 12 µM (inactive)
GI50 (SK-MEL-2): 15.7 µM (inactive)
GI50 (SK-OV-3): 22 µM (inactive)
GI50 (SN12C): 10.9 µM (inactive)
GI50 (SNB-19): 14.6 µM (inactive)
GI50 (SNB-75): > 8.75 µM (inactive)
GI50 (SNB-78): 25.5 µM (inactive)
GI50 (SR): 7.66 µM (inactive)
GI50 (SW-620): 14.8 µM (inactive)
GI50 (TK-10): 17 µM (inactive)
GI50 (U-251): 3.77 µM (inactive)
GI50 (UACC-257): 17.4 µM (inactive)
GI50 (UACC-62): 30.1 µM (inactive)
GI50 (UO-31): 11.8 µM (inactive)
